Data set [1] is described as follows: acute toxicity study. To be noted: in vivo, mice and rats.
Data set [2] has as its system cardiac lymphatics. In words: cardiac lymphangiography in normal dogs and dogs with LAD coronary artery ligation (second study). It is filed as in vivo, mongrel dogs. To be noted: intravenous infusion, dogs.
Data set [3] deals with cardiac arrhythmia in dogs. In words: cardiac arrhythmia in dogs induced by electrical stimulation (third study). Conditions: 4 hours of stimulation (>180 beats/minute); 50-75 mg/kg i.v. bolus; untreated: tachyarrhythmia bursts, extrasystoles. It is filed as in vivo, mongrel dogs. How it is done: III. In a third study it was evaluated the effect of calcium dobesilate on cardiac arrhythmia in dogs induced by electrical stimulation, to produce EKG changes and cardiac lymphostasis similar to those observed in sick sinus syndrome in man (4,5). […] The other three dogs served as controls. EKG records were made 4 hours later in all animal.

The subject of data set [4] is infarct size, left ventricle. The class given is in vivo, mongrel dogs. The method, then:
IV. In a fourth study the influence of calcium dobesilate on infarct size was evaluated by the double-blind technique. The study was performed in 14 mongrel dogs of either gender weighing about 23-25 kg.
Anesthesia was induced and maintained with sodium pentobarbital (30 mg/kg) and ventilation was maintained through an endotracheal tube with a Harvard respirator providing 200-300 cc of room air/breath at a rate of 18-20/minute.
Coronary artery occlusion in all dogs was obtained by ligation of the LAD just distal to the first septal branch.
The left circumflex artery (LCC) was not ligated and its territory being non-infarcted was used as a control. After ligation of the LAD artery the chest was closed. Calcium dobesilate or the placebo were administered by intravenous perfusion during 7 days according to the following schedule:
0-1 hour after LAD ligation 100 mg/kg i.v. in 100 ml saline
2-3 hours after LAD ligation 100 mg/kg i.v. in 100 ml saline
4-6 hours after LAD ligation 75 mg/kg i.v. in 100 ml saline
7-12 hours after LAD ligation 50 mg/kg i.v. in 100 ml saline
13-24 hours after LAD ligation 50 mg/kg i.v. in 100 ml saline
2-5 days after LAD ligation 3 × 50 mg/kg i.v. in 50 ml saline
6-7 days after LAD ligation 3 × 25 mg/kg i.v. in 50 ml
After 7 days the animals were killed and the hearts were sliced in sections of 1 cm (from the apex to the base). The infarcted and non-infarcted zones of the left ventricle were planimetered to evaluate the infarct size in % in relation to the whole left ventricle. Then the infarcted and non infarcted zones were weighed to determine the size of the infarcted zone in grams in relation to the size of the whole left ventricle.

What is called LD50 is the dose at which mortality reaches 50%.

As for `O=S(=O)(O)c1cc(O)ccc1O` [calcium dobesilate, calcium 2,5-dihydroxybenzenesulfonate], the LD50 in data set [1] (intravenous) is 750 mg/kg; in data set [1] (oral) it was more than 4000 mg/kg. Moreover, the “most effective infused dose” value in data set [2] was 100 mg per kg body weight. In data set [3], the “EKG tracings after rapid electrical stimulation” value is “practically normal EKG tracings”. In addition, in data set [4] (dog, in vivo), the “drug's tolerance during the experimental period” value is “perfect”. Also, the “side-effects attributable to the drug” value in data set [4] (dog, in vivo, iv) is “No side-effects”. In addition, the “infarct size % of whole area of left ventricle, planimetry, MEAN” value in data set [4] (mean of 8 dogs, i.v. perfusion 7 days, placebo mean 54,1%) is 26,2%. Moreover, the “infarct size % of left ventricle, weight, MEAN” value in data set [4] (mean of 8 dogs, i.v. perfusion 7 days, placebo mean 54,4%) is 27,9%. Also, in data set [4] (planimetry and weight analysis, p<0,001), the “reduction in infarct size compared to placebo” value is 50 % less.

For the origin of these results see US4513007A, “Method for treating heart disease” (priority 1983, dated 1985).
